Measured values as given in PubChem BioAssay (NCI).
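Growth conditions: 96-well plates. Treatment: test compound, 48 hours, 5 concentrations. Analysis: linear interpolation between bracketing concentrations; unreached endpoints set to highest concentration. Abbreviation: GI50, concentration required for 50% inhibition of growth. The concentration for full growth arrest is given as TGI.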

Experiments:
Experiment in all cases: DTP human tumour cell line panel, 48 h
[1] = tested on: HL-60(TB) leukemia
[2] = tested on: HOP-92 NSCLC
[3] = tested on: NCI-H226 lung
[4] = tested on: MOLT-4 leukemia
[5] = tested on: CCRF-CEM leukemia
[6] = tested on: SK-MEL-5 melanoma
[7] = tested on: DU-145 prostate
[8] = tested on: UACC-257 melanoma
[9] = tested on: UACC-62 melanoma
[10] = tested on: K-562 leukemia
[11] = tested on: NCI/ADR-RES ovarian
[12] = tested on: SK-OV-3 ovarian
[13] = tested on: ACHN renal
[14] = tested on: SF-539 CNS
[15] = tested on: M14 melanoma
[16] = tested on: MDA-MB-231 breast
[17] = tested on: OVCAR-3 ovarian
[18] = tested on: SF-295 CNS
[19] = tested on: NCI-H460 lung
[20] = tested on: NCI-H23 lung
[21] = tested on: SNB-75 CNS
[22] = tested on: PC-3 prostate
[23] = tested on: HCC-2998 colon
[24] = tested on: A498 renal
[25] = tested on: HS 578T breast
[26] = tested on: IGROV1 ovarian
[27] = tested on: U251 CNS
[28] = tested on: BT-549 breast
[29] = tested on: SN12C renal
[30] = tested on: MDA-MB-435
[31] = tested on: UO-31 renal
[32] = tested on: T-47D breast
[33] = tested on: SNB-19 CNS
[34] = tested on: RPMI-8226 leukemia
[35] = tested on: COLO 205 colon
[36] = tested on: 786-0 renal
[37] = tested on: TK-10 renal
[38] = tested on: SW-620 colon
[39] = tested on: MCF7 breast
[40] = tested on: HCT-116 colon
[41] = tested on: SK-MEL-2 melanoma
[42] = tested on: KM12 colon
[43] = tested on: RXF 393 renal
[44] = tested on: OVCAR-5 ovarian
[45] = tested on: OVCAR-8 ovarian
[46] = tested on: HCT-15 colon
[47] = tested on: A549 NSCLC
[48] = tested on: LOX IMVI melanoma
[49] = tested on: SF-268 CNS
[50] = tested on: NCI-H522 lung
[51] = tested on: CAKI-1 renal
[52] = tested on: MALME-3M melanoma
[53] = tested on: SK-MEL-28 melanoma
[54] = tested on: HOP-62 NSCLC
[55] = tested on: HT29 colon
[56] = tested on: OVCAR-4 ovarian
[57] = tested on: EKVX NSCLC

`O=C(c1ccc(Cl)cc1)c1no[n+]([O-])c1C(=O)c1ccc(Cl)cc1` was tested, and the GI50 [1] was 6.06 µM, the TGI [1] was 20.7 µM and the GI50 [2] was 1.77 µM. For the same compound, the TGI [2] was 4.26 µM, the GI50 [3] was 15.8 µM and the TGI [3] was 31.1 µM. For the same compound, the GI50 [4] was 4.73 µM, the TGI [4] was 22.1 µM and the GI50 [5] was 2 µM. For the same compound, the TGI [5] was 4.75 µM, the GI50 [6] was 15.9 µM and the TGI [6] was 30.5 µM. It also gave a GI50 [7] of 17 µM, a TGI [7] of 31 µM and a GI50 [8] of 14.5 µM. The TGI [8] was 27.8 µM, the GI50 [9] was 13.7 µM and the TGI [9] was 27.3 µM. It also gave a GI50 [10] of 5.32 µM, a TGI [10] of 31.8 µM and a GI50 [11] of 20.5 µM. It also gave a TGI [11] of 49.8 µM, a GI50 [12] of 21 µM and a TGI [12] of 42.9 µM. It also gave a GI50 [13] of 5.69 µM, a TGI [13] of 17.9 µM and a GI50 [14] of 3.24 µM. The TGI [14] was 8.17 µM, the GI50 [15] was 13.3 µM and the TGI [15] was 27.2 µM. It also gave a GI50 [16] of 10.9 µM, a TGI [16] of 26.8 µM and a GI50 [17] of 6.6 µM. It also gave a TGI [17] of 14.5 µM, a GI50 [18] of 14.3 µM and a TGI [18] of 29 µM. It also gave a GI50 [19] of 23.6 µM, a TGI [19] of 63 µM and a GI50 [20] of 16.5 µM. It also gave a TGI [20] of 40.9 µM, a GI50 [21] of 15 µM and a TGI [21] of 29 µM. It also gave a GI50 [22] of 8.76 µM, a TGI [22] of 22 µM and a GI50 [23] of 21 µM. For the same compound, the TGI [23] was 44.8 µM, the GI50 [24] was 16.4 µM and the TGI [24] was 36.4 µM. It also gave a GI50 [25] of 21.2 µM, a TGI [25] of 68.2 µM and a GI50 [26] of 3.87 µM. The TGI [26] was 10.3 µM, the GI50 [27] was 15.8 µM and the TGI [27] was 30.2 µM. For the same compound, the GI50 [28] was 9.21 µM, the TGI [28] was 22 µM and the GI50 [29] was 13 µM. The TGI [29] was 28.3 µM, the GI50 [30] was 13.5 µM and the TGI [30] was 26.8 µM. It also gave a GI50 [31] of 1.64 µM, a TGI [31] of 3.2 µM and a GI50 [32] of 13.1 µM. For the same compound, the TGI [32] was 43.1 µM, the GI50 [33] was 32.7 µM and the TGI [33] was over 95.8 µM. The GI50 [34] was 4.6 µM, the TGI [34] was 24.4 µM and the GI50 [35] was 14.6 µM. For the same compound, the TGI [35] was 34.3 µM, the GI50 [36] was 3.97 µM and the TGI [36] was 13.7 µM. It also gave a GI50 [37] of 15 µM, a TGI [37] of 28.3 µM and a GI50 [38] of 11.8 µM. The TGI [38] was 25.1 µM, the GI50 [39] was 11.3 µM and the TGI [39] was 31.7 µM. For the same compound, the GI50 [40] was 10.7 µM, the TGI [40] was 27.4 µM and the GI50 [41] was 14.9 µM. For the same compound, the TGI [41] was 28.7 µM, the GI50 [42] was 20.3 µM and the TGI [42] was 45.6 µM. The GI50 [43] was 11.5 µM, the TGI [43] was 23.8 µM and the GI50 [44] was 16.5 µM. For the same compound, the TGI [44] was 35.3 µM, the GI50 [45] was 14.5 µM and the TGI [45] was 33.8 µM. For the same compound, the GI50 [46] was 12.6 µM, the TGI [46] was 31 µM and the GI50 [47] was 23.5 µM. It also gave a TGI [47] of 62.1 µM, a GI50 [48] of 1.79 µM and a TGI [48] of 3.59 µM. It also gave a GI50 [49] of 14.1 µM, a TGI [49] of 33.2 µM and a GI50 [50] of 1.74 µM. For the same compound, the TGI [50] was 3.37 µM, the GI50 [51] was 4.58 µM and the TGI [51] was 12.2 µM. It also gave a GI50 [52] of 2.18 µM, a TGI [52] of 4.2 µM and a GI50 [53] of 14.1 µM. It also gave a TGI [53] of 27.8 µM, a GI50 [54] of 28.5 µM and a TGI [54] of over 74.7 µM. For the same compound, the GI50 [55] was 11.2 µM, the TGI [55] was 26.4 µM and the GI50 [56] was 13.3 µM. For the same compound, the TGI [56] was 27.5 µM.
Work on `C=C1C(=O)O[C@H]2[C@H]1CC/C(COC(=O)/C=C/C(=O)NCc1ccc(Cn3c(=O)sn(-c4ccccc4)c3=O)cc1)=C\CC[C@@]1(C)O[C@@H]21` yielded a GI50 [1] of 0.925 µM, a TGI [1] of 5.3 µM and a GI50 [2] of 1.85 µM. It also gave a TGI [2] of 3.55 µM, a GI50 [3] of 14.6 µM and a TGI [3] of 32.8 µM. It also gave a GI50 [4] of 1.14 µM, a TGI [4] of 5.2 µM and a GI50 [6] of 2.36 µM. The TGI [6] was 6.27 µM, the GI50 [7] was 1.95 µM and the TGI [7] was 4.07 µM. It also gave a GI50 [8] of 1.74 µM, a TGI [8] of 4.07 µM and a GI50 [9] of 1.61 µM. It also gave a TGI [9] of 3.26 µM, a GI50 [10] of 0.501 µM and a TGI [10] of 18.4 µM. For the same compound, the GI50 [57] was 4.82 µM, the TGI [57] was 17.6 µM and the GI50 [11] was 47.8 µM. The TGI [11] was over 100 µM, the GI50 [12] was 30.3 µM and the TGI [12] was over 100 µM. It also gave a GI50 [13] of 1.84 µM, a TGI [13] of 3.78 µM and a GI50 [14] of 1.84 µM. For the same compound, the TGI [14] was 3.45 µM, the GI50 [15] was 1.86 µM and the TGI [15] was 4.37 µM. The GI50 [16] was 2.02 µM, the TGI [16] was 3.98 µM and the GI50 [17] was 0.519 µM. The TGI [17] was 1.72 µM, the GI50 [18] was 18.3 µM and the TGI [18] was 32.7 µM. The GI50 [19] was 5.28 µM, the TGI [19] was 22.2 µM and the GI50 [21] was 3.41 µM. For the same compound, the TGI [21] was 15.2 µM, the GI50 [22] was 2.84 µM and the TGI [22] was 9.54 µM. The GI50 [23] was 2.11 µM, the TGI [23] was 4.46 µM and the GI50 [24] was 3.45 µM. For the same compound, the TGI [24] was 9.55 µM, the GI50 [25] was 3.95 µM and the TGI [25] was 35.4 µM. For the same compound, the GI50 [26] was 2.44 µM, the TGI [26] was 7.24 µM and the GI50 [27] was 3.46 µM. For the same compound, the TGI [27] was 12.1 µM, the GI50 [28] was 1.55 µM and the TGI [28] was 2.91 µM. The GI50 [29] was 2.16 µM, the TGI [29] was 5.95 µM and the GI50 [30] was 1.73 µM. It also gave a TGI [30] of 3.44 µM, a GI50 [31] of 2.19 µM and a TGI [31] of 5.09 µM. It also gave a GI50 [32] of 2.22 µM, a TGI [32] of 7.21 µM and a GI50 [33] of 4.8 µM. For the same compound, the TGI [33] was 19.4 µM, the GI50 [34] was 1.21 µM and the TGI [34] was 4.78 µM. The GI50 [35] was 1.74 µM, the TGI [35] was 3.47 µM and the GI50 [36] was 1.61 µM. It also gave a TGI [36] of 3.33 µM, a GI50 [37] of 1.92 µM and a TGI [37] of 3.85 µM. For the same compound, the GI50 [39] was 1.75 µM, the TGI [39] was 7.72 µM and the GI50 [40] was 0.382 µM. The TGI [40] was 1.44 µM, the GI50 [41] was 2.22 µM and the TGI [41] was 5.57 µM. It also gave a GI50 [42] of 2.96 µM, a TGI [42] of 11.6 µM and a GI50 [43] of 1.43 µM. For the same compound, the TGI [43] was 2.83 µM, the GI50 [44] was 2.69 µM and the TGI [44] was 5.8 µM. The GI50 [45] was 2.32 µM, the TGI [45] was 5.39 µM and the GI50 [46] was 3.22 µM. It also gave a TGI [46] of 13.6 µM, a GI50 [47] of 17.2 µM and a TGI [47] of 37 µM. It also gave a GI50 [49] of 2.67 µM, a TGI [49] of 10.9 µM and a GI50 [50] of 0.406 µM. For the same compound, the TGI [50] was 1.77 µM, the GI50 [51] was 11.7 µM and the TGI [51] was 24.4 µM. For the same compound, the GI50 [52] was 0.933 µM, the TGI [52] was 2.41 µM and the GI50 [53] was 1.74 µM. It also gave a TGI [53] of 3.28 µM, a GI50 [54] of 13.2 µM and a TGI [54] of 27.1 µM. For the same compound, the GI50 [55] was 1.86 µM, the TGI [55] was 3.84 µM and the GI50 [56] was 2.69 µM. For the same compound, the TGI [56] was 8.09 µM.
